# Measured values taken from PMC10569036.
# Test: shake flask on a mixture of 185; loss from the water phase only; LC-Orbitrap peak areas
# Conditions: room
SMILES,"log partition 1-octanol / HPLC water, unbuffered, traces of methanol / DMSO [log10]","log partition butyl acetate / HPLC water, unbuffered, traces of methanol / DMSO [log10]","log partition chloroform / HPLC water, unbuffered, traces of methanol / DMSO [log10]","log partition cyclohexane / HPLC water, unbuffered, traces of methanol / DMSO [log10]","log partition dichloromethane / HPLC water, unbuffered, traces of methanol / DMSO [log10]","log partition n-hexane / HPLC water, unbuffered, traces of methanol / DMSO [log10]","log partition n-octane / HPLC water, unbuffered, traces of methanol / DMSO [log10]","log partition n-undecane / HPLC water, unbuffered, traces of methanol / DMSO [log10]","log partition oleylalcohol / HPLC water, unbuffered, traces of methanol / DMSO [log10]","log partition toluene / HPLC water, unbuffered, traces of methanol / DMSO [log10]"
c1ccc(CCCc2ccncc2)cc1,0.08604,-0.4137,-0.0585,-0.2421,0.1807,-0.1192,-0.1298,-0.4578,-0.2233,-0.2508
CCCCC(CC)COC(=O)c1ccccc1C(=O)O (centres unmarked),-0.191,-0.07834,0.168,-0.8356,0.3352,-1.06,-1.182,-1.177,-0.5168,-0.2474
Cc1ccc(N)c(S(=O)(=O)O)c1,0.1434,0.1277,1.369,-0.01168,1.153,0.1369,-0.1323,-0.3053,-0.05327,0.5377
CC(C)(C)c1ccc(O)c(O)c1,0.06578,-0.6544,0.08964,-0.4267,-0.4317,-0.4698,-0.4633,-0.5006,-0.3469,-0.3594
CCCCC(CC)C(=O)OCCOCCOCCOCCOC(=O)C(CC)CCCC (centres unmarked),1.119,-0.08786,-0.484,-2.242,-0.03133,-1.802,-2.665,-0.9886,1.482,0.3117
COC(=O)c1ccc(C(=O)OC)c(C(=O)OC)c1,1.294,0.7248,1.573,1.164,1.169,0.9609,1.205,0.9207,0.6631,1.185
COC(=O)c1sccc1S(N)(=O)=O,1.602,1.673,1.568,-1.037,1.105,-1.408,-1.192,-1.316,0.8181,0.3445
Nc1nc(Cl)nc2c1ncn2[C@H]1C[C@H](O)[C@@H](CO)O1,0.3863,-0.3544,-0.3218,-1.47,-0.9957,-1.176,-1.209,-1.567,-0.4024,-0.8939
CN(C)c1ccc(Cc2ccc(N(C)C)cc2)cc1,0.3418,1.067,3.139,0.5577,2.123,-0.5531,0.3458,-0.4236,-0.165,1.554
Oc1c(Cl)ccc(Cl)c1Cl,-0.2337,-1.606,0.7523,0.2263,-0.3412,-0.04129,0.4223,-0.1707,-0.8397,-0.4023
Cc1cc(SCc2sc(-c3ccc(C(F)(F)F)c(F)c3)nc2C)ccc1OCC(=O)O,-0.1342,0.8792,0.4425,-1.06,0.6672,-1.28,-0.8266,-1.326,0.4514,-0.01784
OC(c1ccc(F)cc1)(c1cncnc1)c1ccccc1Cl (centres unmarked),2.087,2.226,2.317,2.077,2.933,1.642,1.699,1.456,1.561,2.565
N#CC(c1ccccc1)c1ccccc1,-0.3597,0.2978,-0.002518,-0.2823,0.1658,-0.257,-0.2917,-0.816,0.1292,0.1711
CC(=O)Oc1ccc(C(C)=O)cc1,0.8444,0.4506,0.8919,-0.4431,0.1616,-0.7051,-0.2813,-0.7594,0.2271,-0.3508
CC(=O)Nc1ccc(C)cc1C,0.5136,0.7692,0.52,–,0.8573,–,–,–,0.7926,0.01564
